According to PubChem BioAssay (NCI):
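Cells were grown in 96-well plates and exposed to each compound for 48 hours at five concentrations; endpoints were interpolated linearly between bracketing concentrations, or set to the highest concentration if not reached. The concentration for 50% growth inhibition is given as GI50. The concentration for full growth arrest is given as TGI.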

Experiments:
Test in all cases: inhibition of tumour cell growth, NCI panel, 48 h
NCI-H522 lung = tested on: NCI-H522 lung
NCI/ADR-RES ovarian = tested on: NCI/ADR-RES ovarian
OVCAR-3 ovarian = tested on: OVCAR-3 ovarian
OVCAR-4 ovarian = tested on: OVCAR-4 ovarian
OVCAR-5 ovarian = tested on: OVCAR-5 ovarian
OVCAR-8 ovarian = tested on: OVCAR-8 ovarian
PC-3 prostate = tested on: PC-3 prostate
RPMI-8226 leukemia = tested on: RPMI-8226 leukemia
SF-268 CNS = tested on: SF-268 CNS
SF-295 CNS = tested on: SF-295 CNS
SF-539 CNS = tested on: SF-539 CNS
SK-MEL-2 melanoma = tested on: SK-MEL-2 melanoma
SK-MEL-28 melanoma = tested on: SK-MEL-28 melanoma
SK-MEL-5 melanoma = tested on: SK-MEL-5 melanoma
SK-OV-3 ovarian = tested on: SK-OV-3 ovarian
SN12C renal = tested on: SN12C renal
SNB-19 CNS = tested on: SNB-19 CNS
SNB-75 CNS = tested on: SNB-75 CNS
SR leukemia = tested on: SR leukemia
SW-620 colon = tested on: SW-620 colon
T-47D breast = tested on: T-47D breast
TK-10 renal = tested on: TK-10 renal
U251 CNS = tested on: U251 CNS
UACC-257 melanoma = tested on: UACC-257 melanoma
UACC-62 melanoma = tested on: UACC-62 melanoma
UO-31 renal = tested on: UO-31 renal

CCC1CCc2nc3sc(C(=O)Nc4cccc(F)c4)c(N)c3cc2C1 (configuration not stated)
GI50 (NCI-H522 lung): > 100 µM | TGI (NCI-H522 lung): > 100 µM | GI50 (NCI/ADR-RES ovarian): > 100 µM | TGI (NCI/ADR-RES ovarian): > 100 µM | GI50 (OVCAR-3 ovarian): 0.757 µM | TGI (OVCAR-3 ovarian): > 100 µM | GI50 (OVCAR-4 ovarian): > 100 µM | TGI (OVCAR-4 ovarian): > 100 µM | GI50 (OVCAR-5 ovarian): > 100 µM | TGI (OVCAR-5 ovarian): > 100 µM | GI50 (OVCAR-8 ovarian): > 100 µM | TGI (OVCAR-8 ovarian): > 100 µM | GI50 (PC-3 prostate): > 100 µM | TGI (PC-3 prostate): > 100 µM | GI50 (RPMI-8226 leukemia): > 100 µM | TGI (RPMI-8226 leukemia): > 100 µM | GI50 (SF-268 CNS): > 100 µM | TGI (SF-268 CNS): > 100 µM | GI50 (SF-295 CNS): 0.901 µM | TGI (SF-295 CNS): > 100 µM | GI50 (SF-539 CNS): > 100 µM | TGI (SF-539 CNS): > 100 µM | GI50 (SK-MEL-2 melanoma): > 100 µM | TGI (SK-MEL-2 melanoma): > 100 µM | GI50 (SK-MEL-28 melanoma): > 100 µM | TGI (SK-MEL-28 melanoma): > 100 µM | GI50 (SK-MEL-5 melanoma): 0.386 µM | TGI (SK-MEL-5 melanoma): > 100 µM | GI50 (SK-OV-3 ovarian): > 100 µM | TGI (SK-OV-3 ovarian): > 100 µM | GI50 (SN12C renal): > 100 µM | TGI (SN12C renal): > 100 µM | GI50 (SNB-19 CNS): > 100 µM | TGI (SNB-19 CNS): > 100 µM | GI50 (SNB-75 CNS): 9.19 µM | TGI (SNB-75 CNS): > 100 µM | GI50 (SR leukemia): 0.379 µM | TGI (SR leukemia): > 100 µM | GI50 (SW-620 colon): 0.707 µM | TGI (SW-620 colon): > 100 µM | GI50 (T-47D breast): > 100 µM | TGI (T-47D breast): > 100 µM | GI50 (TK-10 renal): > 100 µM | TGI (TK-10 renal): > 100 µM | GI50 (U251 CNS): > 100 µM | TGI (U251 CNS): > 100 µM | GI50 (UACC-257 melanoma): > 100 µM | TGI (UACC-257 melanoma): > 100 µM | GI50 (UACC-62 melanoma): 0.376 µM | TGI (UACC-62 melanoma): > 100 µM | GI50 (UO-31 renal): > 100 µM | TGI (UO-31 renal): > 100 µM
